Measurements published in US20250121000A1, “INHALABLE BICARBONATE COMPOSITIONS AND DELIVERY SYSTEMS THEREFOR” (Nebulize Performance Inc., priority 2023, published 2025).
Like-named read-outs stand apart in the source and are kept apart here.

Legend:
[1] = upwards of / over 20 grams, literature studies, cited from earlier work
[2] = for gastrointestinal discomfort or side effects / self-reported breathing difficulties (chest tightness, shortness of breath, respiratory difficulty) and nausea: inhaled nebulized 3.5% sodium bicarbonate; for self-reported breathing difficulties (chest tightness, shortness of breath, respiratory difficulty) and nausea: all participants
Experimental: A randomized, single-blinded, crossover design was used. Participants completed a repeated sprint exercise protocol to total exhaustion in an indoor facility after inhaling 20 mL of a 3.5% sodium bicarbonate solution (700 mg) dissolved in water or a placebo (pure water) prior to the sprint test. Participants inhaled the solutions through a commercially available nebulizer (Pari Vios Nebulizer System™) for 30 min while seated at rest over 5 bouts of 6 min (4 mL/bout) prior to completing the first sprint set and were required to breathe the same solution for 60 seconds in between each set (described below).
The order of placebo or bicarbonate was assigned with a numbering system of 1 and 2 respectively, where half of the participants were randomly assigned a 1-2 vs 2-1 order with each trial separated by one week. Following the last trial, participants were asked to guess the order of trials. […] Participants were also asked to describe any noticeably breathing difficulties including chest tightness, shortness of breath or any sign of respiratory difficulty, as well as nausea.

[3] = inhaled 3.5% sodium bicarbonate, sets 1-4, p<0.05
[4] = participants that completed more than 4 sprint sets, non-significant trend

O=C([O-])O.[Na+] [sodium bicarbonate]
faster sprint times after oral ingestion ([1]; listed as bicarbonate): ≤ 5%
faster sprint times after oral ingestion [1]: < 5%
average improvement in sprint time vs placebo, first half of each set (shuttle sprints 1-3) [2, 3]: 3.5%
improvement in average sprint time vs placebo, sprints 4-6 of each set [2, 3]: 4.5%
decrease in average sprint time vs placebo, overall (sprints 1-6 of each set) ([2]; inhaled 20 mL of 3.5% sodium bicarbonate solution (700 mg) by nebulizer plus 60 s between sets, 4 sets of 6x40 m sprints, p<0.05): 4.1%
gastrointestinal discomfort or side effects [2]: no participants experienced any symptoms of gastrointestinal discomfort or side effects
self-reported breathing difficulties (chest tightness, shortness of breath, respiratory difficulty) and nausea [2]: free of any such distress
self-reported breathing difficulties (chest tightness, shortness of breath, respiratory difficulty) and nausea ([2]; listed as nebulized bicarbonate): free of respiratory distress
gastrointestinal discomfort or side effects ([2]; listed as Nebulized bicarbonate): without detrimental side effects
improvement in performance (faster time) in sprint set 5 [2, 4]: 5%
improvement in performance (faster time) in sprint set 6 [2, 4]: 7%
